{"source": "patent US20220387365A1", "about": "“TUCARESOL DERIVATIVES AND USES THEREOF” (BeyondSpring Pharmaceuticals, Inc., priority 2019, published 2022)", "key": {"Hepa 1-6 tumor cells": {"test_system": "Hepa 1-6 tumor cells", "assay": "In vivo efficacy in subcutaneous Hepa 1-6 mouse liver cancer model", "design": "species or system C57BL/6 mice", "settings": "p.o.", "experimental": "The study evaluated preclinically in vivo therapeutic efficacy of tucaresol and Compound C02 as a single agent in the treatment of subcutaneous Hepa 1-6 liver cancer models in C57BL/6 mice.\nCell Culture: The Hepa 1-6 tumor cells were maintained in vitro as a monolayer culture in DMEM medium supplemented with 10% fetal bovine serum at 37° C. in an atmosphere of 5% CO2 in air. The cells in an exponential growth phase were harvested and counted for tumor inoculation.\nTumor Inoculation: Each C57BL/6 mouse was subcutaneously inoculated at the right flank with Hepa 1-6 tumor cells (5×10^6) in 0.1 ml of PBS for tumor development. The date of tumor cell inoculation was denoted as day 0.\nRandomization: The randomization started when the mean tumor size reached approximately 100-150 mm^3 in each model. […]\n(§1) After tumor cell inoculation, the animals were checked daily for morbidity and mortality. During routine monitoring, the animals were checked for any effects of tumor growth and treatments on behavior such as mobility, food and water consumption, body weight gain/loss (body weights will be measured twice per week after randomization), eye/hair matting and any other abnormalities. Mortality and observed clinical signs were recorded for individual animals in detail. […]\nTumor growth inhibition (TGI): TGI % is an indication of antitumor activity, and expressed as: TGI (%)=100×(1−T/C). […]"}, "MC-38 tumor cells": {"test_system": "MC-38 tumor cells", "assay": "In vivo efficacy in subcutaneous MC-38 murine colorectal cancer model (Example 9)", "design": "species or system C57BL/6 mice", "experimental": "This study evaluated preclinically the in vivo therapeutic efficacy of Compound C02 as a single agent and in combination with anti-PD-1 antibody in the treatment of subcutaneous MC-38 colorectal cancer models in C57BL/6 mice.\nTreatment regimen may be changed per BW loss or other adverse effect according to rules set forth and/or client requests. When dosed on the same day, vehicle for CO2 was administered about 1-2 hours after the dosing of anti-PD1 or control IgG.\nThe […] tumor cells were maintained in vitro as a monolayer culture in RPMI-1640 supplemented with 10% fetal bovine serum at 37° C. in an atmosphere of 5% CO2 in air. The cells in an exponential growth phase were harvested and counted for tumor inoculation. […]\nas §1, with “cells” for “cell”\nRectal temperature was recorded without anaesthesia on the day prior to the first dosing and on the day after the last oral dose."}, "[1]": {"assay": "Stability in C57BL/6 K2EDTA plasma at 22° C. over 1 hour by LC", "assay_type": "in vitro ADME, mouse", "settings": "for Remaining %: mouse plasma, 2,000 ng/mL, 22°C", "experimental": "Tucaresol, Compound B02, Compound C01, Compound C02-1, and Compound C02 were dosed once, by IV bolus (3 mg/kg in 20% hydroxyprophyl-13-cyclodextrin with 1 eq NaOH) or PO (10 mg/kg in 1% carboxymethylcellulose/0.1% tween-80 in water), to non-fasted male C57BL/6 mice. Animals were bled from the dorsal metatarsal vein (from the heart for 24 hour time point) for K2-EDTA plasma 0.083 (for IV only), 0.25, 0.5, 1, 2, 4, 8, and 24 hours after dosing. The plasma concentration of the dosed tucaresol or compound were measured by LC/MS/MS (I-CMS-8060 instrument for MS). PK parameters were then calculated with WinNonlin 6.1. For Compounds C01, CO2 and CO2-1, stability in C57BL/6 K2EDTA plasma was also evaluated at 22° C. over 1 hour by utilizing LC.\nCompounds C01 and C02-1 are unstable at 22° C."}}, "data": [{"molecule": "O=Cc1c(OCc2ccc(C(=O)O)cc2)cccc1OC1O[C@H](CO)[C@@H](O)[C@H](O)[C@H]1O", "note": "(stereo partly shown) [Compound C02]", "values": [{"measurement": "efficacy of once a day for five days (QD×5) against every-other-day administration", "setting": "Hepa 1-6 tumor cells", "result": "greater efficacy than every-other-day administration"}, {"measurement": "time of treatment after which the benefits were especially apparent", "setting": "MC-38 tumor cells; QDx5, as a monotherapy or in combination with anti-PD1", "result": "15 to 20", "unit": "days"}, {"measurement": "dose response of efficacy (in words)", "setting": "MC-38 tumor cells; QDx5 dosing, down to 10 mg/kg QDx5", "result": "inverse dose response relationship"}, {"measurement": "mouse plasma stability (in words)", "setting": "[1]; 22° C.", "result": "initial instability"}, {"measurement": "Remaining %", "setting": "[1]; 0 min", "result": 100, "unit": "%"}, {"measurement": "Remaining %", "setting": "[1]; 5 min", "result": 62.3, "unit": "%"}, {"measurement": "Remaining %", "setting": "[1]; 15 min", "result": 79.6, "unit": "%"}, {"measurement": "Remaining %", "setting": "[1]; 30 min", "result": 68.7, "unit": "%"}, {"measurement": "Remaining %", "setting": "[1]; 60 min", "result": 61.7, "unit": "%"}, {"measurement": "level of starting at which the compound leveled off", "setting": "[1]; mouse plasma, 22° C., through 1 hour", "result": "60-70%"}]}]}
